Seven compounds from US10098849B2, “Anti-radical agents” (BASF SE, priority 2004, dated 2018) can be followed below.

Read-outs that look alike come from different tables or passages of the source.

The test system of data set [1] is squalene peroxidation (squalenehydroperoxide) in skin lipids. As to the kind of experiment: Efficacy against photooxidative stress in the skin induced by UVA irradiation (squalenehydroperoxide, HPLC). The format is in vivo, human. On the procedure: Anti-oxidant activity in vivo is measured via the capacity of a test compound to reduce radical induced lipid-peroxidation. • Persons tested: 10 individuals (4 female, 6 male); age range: 18 to 32 years • Body region tested: inner forearm • Application phase: once a day • Test period 7 days • Evaluation method: Determination of squalene • Determination of squalenehydroperoxide • Time of Evaluation: after UVA radiation • Evaluation: Descriptive statistics: average, median, minimum, maximum, variance, standard error, standard deviation; Multiple range test. Test Method
On the inner forearm of each subject symmetrically opposed areas are defined. The different formulations are applied once a day at a dose of about 2 mg of test solution/cm^2 for one week (application with a syringe for fine dosage: Omnifix®-F 1 ml; manufacturer: Braun Melsungen AG, Germany).
Two areas remain untreated.
The unique application of a solution of tocopherol in ethanol (0.2%) before irradiation serves as control.
Use of other cosmetic products is restricted on the test areas throughout the whole study. The areas (exception: one of the two untreated areas was not irradiated and can be attributed to environmental UVA radiation during the test) of the […] were then irradiated with UVA light (10 joule/cm^2). The lipids present on the test areas are harvested via a solvent extraction (4 ml ethanol for 2 minutes). The samples are first filtered through hydrophobic polypropylene filters to decant squames and other insoluble material, then dried under nitrogen at room temperature and taken up in 1 ml ethanol. Squalene (SQ) and squalenehydroperoxide (SQOOH) are then analysed by High Performance Liquid Chromatography (HPLC).
The fluorometer is used as a photon detector with the excitation source turned off.
This assay measures the hydroperoxy groups themselves and not indirect indices of lipid peroxidation such as conjugated dienes or breakdown products of lipid hydroperoxides. Chemiluminescence also detects ubiquinols. To confirm that any chemiluminescence observed in this assay was due to a hydroperoxide, not a hydroquinone, some samples were reduced with triphenyl phosphine and rerun.
Measuring data are centrally computerised after validity check and quality assurance. Evaluation is done using the software Statgraphics for Windows, Version 5.0—Manugistics, USA. Data are analysed by multiple range test (LSD: Least Significant Differences). The 0.05 level is selected as the point of minimal acceptance statistical significance.

Data set [2] concerns Primary human dermal fibroblasts (HDF-N2). On the procedure: Cell cultures: Primary human dermal fibroblasts (HDF-N2) are maintained in Dulbecco's culture media (DMEM; 1 g/l glucose), supplemented with 10% of fetal calf serum (FCS), 100 μg/ml of streptomycin sulphate, 100 μml of penicillin and 2 mM of L-glutamine, all of them from Biowhitaker, USA. Confluent cells are detached by incubation for 3 minutes in 0.055 trypsin/0.53 mM EDTA at 37° C. and plated at the established cell density (normally, 15×10^4 cells/cm^2).
Culture media of negative controls are containing 10 mMol NaCl or 0.05% DMSO or 0.05% ethanol, respectively. Positive control is a culture medium containing 0.02% of Sodium Lauryl Sulfate (SDS).
For comparative purposes, a further culture medium is used containing the compound of the formula

[3] abbreviates: 1% b.w. solution in ethanol, about 2 mg/cm^2 once a day for 7 days, inner forearm, UVA 10 joule/cm^2, 10 individuals.
Where [4] appears, read: 5% stock solution in DMSO or ethanol diluted 1:500 in culture medium with 10% FCS, 48 h HDF cultures, more absorption = more viable cells.

With `CC(c1cc(C(C)(C)C)cc(C(C)(C)C)c1O)c1cc(C(C)(C)C)cc(C(C)(C)C)c1O` [AO4], the “average inhibition in % of peroxidation (SQOOH relative to untreated area)” value in data set [1] (setting [3]) is on record as 28%. In addition, the “Absorbance (OD450) after 24 h treatment” value in data set [2] (human, 24 h, 0.01 %) worked out at 1.0.

In the case of `CC(C)(C)c1cc(CCC(=O)Nc2ccc(S(=O)(=O)[O-])cc2)cc(C(C)(C)C)c1O.[Na+]` [AO6], in data set [1] (setting [3]), the “average inhibition in % of peroxidation (SQOOH relative to untreated area)” value is 28%. The “Absorbance (OD450) after 24 h treatment” value in data set [2] (human, 24 h, 0.01 %) was 1.9.

As to `CC1(C)CC(O)CC(C)(C)N1O` [AO8], the “average inhibition in % of peroxidation (SQOOH relative to untreated area)” value in data set [1] (setting [3]) came to 21%. Besides, the “Absorbance (OD450) after 24 h treatment” value in data set [2] (setting [4]) is given as 1.65.

With `Cc1c(C)c2c(c(C)c1O)CC[C@@](C)(CCC[C@H](C)CCC[C@H](C)CCCC(C)C)O2` [Control, tocopherol, reference compound], in data set [1] (unique application of tocopherol in ethanol (0.2%) before irradiation, UVA 10 joule/cm^2), the “average inhibition in % of peroxidation (SQOOH relative to untreated area)” value came out at 22.5%.

With `CCCCCCCCCCCCOS(=O)(=O)[O-].[Na+]` [SDS, Sodium Lauryl Sulfate, reference compound], the “Absorbance (OD450) after 24 h treatment” value in data set [2] (positive control, culture medium containing 0.02% Sodium Lauryl Sulfate, 48 h HDF cultures) is reported as 0.25.

`CC(C)Cc1ccc(Oc2ccccc2)cc1O` [comparison, reference compound]: the “Absorbance (OD450) after 24 h treatment” value in data set [2] (human, 24 h, 0.01 %) was 0.25.

Turning to “pentaerythritol-tetrakis(3-[3′,5′-di-tert.butyl-4′-hydroxyphenyl]-propionate) [AO7]”, the “average inhibition in % of peroxidation (SQOOH relative to untreated area)” value in data set [1] (0.1% b.w. solution in ethanol, about 2 mg/cm^2 once a day for 7 days, inner forearm, UVA 10 joule/cm^2, 10 individuals) amounted to 21.5%. For the same compound, in data set [2] (setting [4]), the “Absorbance (OD450) after 24 h treatment” value is reported as 2.0.
